Measurements: patent US5955501A, “Protein kinase C modulators O” (priority 1995, dated 1999)
Counter-ions that a name gives are not always drawn.

Each compound was assayed on HIV (assay: Anti-HIV activity in HIV-infected human peripheral blood lymphocytes (supernatant viral RNA and p24 core protein)). Details: Human immunodeficiency virus 1, Lymphocyte, 96 h; supernatant total viral RNA; at four days; read-out: ED50, concentration of drug giving 50% inhibition of production of viral RNA.
Format: cell-based
Method: Human peripheral blood lymphocytes were isolated from the buffy coat fractions of blood donations. The lymphocytes were then stimulated with 5 μg/ml of phytohemagglutinin for 48 hours. Prior to infection with HIV, the lymphocytes were washed and resuspended in mitogen-free medium. On day 0 the cells were infected with HIV and were cultured for four days in the presence or absence of graded concentrations of 20-deoxy-20-chlorophorbol 12,13-bis[(2',4'-difluorophenyl)acetate]. On days 3 and 4 the supernatant levels of total viral RNA and viral core protein p24 were determined at each drug concentration and dose-response curves were used to determine the concentration of drug giving 50% inhibition of production of viral RNA and of p24 core protein. At four days these ED50 values were less than 100 pM for both RNA and p24.
(§1) In a manner similar to Example 111, the anti-HIV ED50 values for RNA [drug concentration is in brackets] for the following diterpenoid compounds were determined from dose-response curves or by estimation from one or more experimental drug concentrations.
as §1, with “indolactam-type” for “diterpenoid”, “concentrations, data giving percent inhibition of viral RNA production at selected concentrations appear in parentheses:” for “concentrations.”
as §1, with “diacylglycero-type” for “diterpenoid”, “concentrations; data giving percent inhibition of viral RNA production at selected concentrations appear in parentheses: […]” for “concentrations.”
Compound `CC1=C[C@H]2[C@@]3(O)[C@H](C)[C@@H](OC(=O)Cc4ccc(F)cc4F)[C@]4(OC(=O)Cc5ccc(F)cc5F)[C@H]([C@@H]3C=C(CCl)C[C@]2(O)C1=O)C4(C)C` [20-deoxy-20-chlorophorbol 12,13-bis[(2',4'-difluorophenyl)acetate]] has an EC50 of less than 0.1 nM.

Same assay, conditions: Human immunodeficiency virus 1, Lymphocyte, 96 h; supernatant viral core protein p24; at four days; read-out: ED50, concentration of drug giving 50% inhibition of production of p24 core protein
`CC1=C[C@H]2[C@@]3(O)[C@H](C)[C@@H](OC(=O)Cc4ccc(F)cc4F)[C@]4(OC(=O)Cc5ccc(F)cc5F)[C@H]([C@@H]3C=C(CCl)C[C@]2(O)C1=O)C4(C)C` [20-deoxy-20-chlorophorbol 12,13-bis[(2',4'-difluorophenyl)acetate]] was tested, and the EC50 was less than 0.1 nM.

Same assay, conditions: Human immunodeficiency virus 1, Lymphocyte, read-out: percent inhibition of viral RNA production
`CNC(=O)OC[C@@H]1Cc2cn(CC[P+](c3ccccc3)(c3ccccc3)c3ccccc3)c3cccc(c23)N(C)[C@@H](C(C)C)C(=O)N1` (relative stereo) [rac-14-O-(N-methyl)carbamoyl-1-N-(2'-triphenylphosphonium)ethylindolactam V, methanesulfonate salt] was tested, and the inhibition at 10 µM was 82%. `CCCCCCCCc1ccc2c3c(c[nH]c13)C[C@@H](COC(=O)NC)NC(=O)[C@H](C(C)C)N2C` [14-O-(N-Methyl)carbamoyl-7-octyl-(9S,12S)-indolactam V] was tested, and the inhibition at 10 µM was 87%.

Same assay, conditions: Human immunodeficiency virus 1, Lymphocyte; at 10 μM; read-out: percent inhibition of viral RNA production
`CCOC(=O)[C@@H]1Cc2cn(CO)c3cccc(c23)N(C)[C@@H](C(C)C)C(=O)N1` [1-N-hydroxymethyl-9-deshydroxymethyl-9-ethoxycarbonylindolactam V] gave an inhibition at 10 µM of 31%.

Same assay, conditions: Human immunodeficiency virus 1, Lymphocyte; from dose-response curves or by estimation from one or more experimental drug concentrations; read-out: anti-HIV ED50 for RNA
`CC1=C[C@H]2[C@@]3(O)[C@H](C)[C@@H](OC(=O)Cc4ccc(F)cc4F)[C@]4(OC(=O)Cc5ccc(F)cc5F)[C@H]([C@@H]3C=C(CS(=O)(=O)CCO)C[C@]2(O)C1=O)C4(C)C` [20-deoxy-20-(2'-hydroxyethylsulfonyl)phorbol 12,13-bis[(2',4'-difluorophenyl)acetate]] was tested, and the EC50 was 5000 nM. `CC1=C[C@H]2[C@@]3(O)[C@H](C)[C@@H](OC(=O)Cc4ccc(F)cc4F)[C@]4(OC(=O)Cc5ccc(F)cc5F)[C@H]([C@@H]3C=C(CN=[N+]=[N-])C[C@]2(O)C1=O)C4(C)C` [20-deoxy-20-azidophorbol 12,13-bis[(2',4'-difluorophenyl)acetate]] was tested, and the EC50 was 65 nM. For `CC1=C[C@H]2[C@@]3(O)[C@H](C)[C@@H](OC(=O)Cc4c(F)c(F)c(F)c(F)c4F)[C@]4(OC(=O)Cc5c(F)c(F)c(F)c(F)c5F)[C@H]([C@@H]3C=C(CCl)C[C@]2(O)C1=O)C4(C)C` [20-deoxy-20-chlorophorbol 12,13-bis[(pentafluorophenyl)acetate]], the EC50 was less than 1 nM. Work on `CC1=C[C@H]2[C@@]3(O)[C@H](C)[C@@H](OC(=O)Cc4ccc(F)cc4F)[C@]4(OC(=O)Cc5ccc(F)cc5F)[C@H]([C@@H]3C=C(C=NO)C[C@]2(O)C1=O)C4(C)C` [20-deoxy-20-hydroximinophorbol 12,13-bis[(2',4'-difluorophenyl)acetate]] yielded an EC50 of 5500 nM. Compound `CC1=C[C@H]2[C@@]3(O)[C@H](C)[C@@H](OC(=O)Cc4ccc(F)cc4F)[C@]4(OC(=O)Cc5ccc(F)cc5F)[C@H]([C@@H]3C=C(CSCCO)C[C@]2(O)C1=O)C4(C)C` [20-deoxy-20-(2'-hydroxyethylthio)phorbol 12,13-bis[(2',4'-difluorophenyl)acetate]] has an EC50 of 1000 nM. `CC1=C[C@H]2[C@@]3(O)[C@H](C)[C@@H](OC(=O)Cc4ccc(F)cc4F)[C@]4(OC(=O)Cc5ccc(F)cc5F)[C@H]([C@@H]3C=C(CNc3cccc(CO)c3)C[C@]2(O)C1=O)C4(C)C` [20-deoxy-20-[(3'-hydroxymethylphenyl)amino]phorbol 12,13-bis[(2',4'-difluorophenyl)acetate]] gave an EC50 of 180 nM. With `CC1=C[C@H]2[C@@]3(O)[C@H](C)[C@@H](OC(=O)Cc4ccc(F)cc4F)[C@]4(OC(=O)Cc5ccc(F)cc5F)[C@H]([C@@H]3C=C(CBr)C[C@]2(O)C1=O)C4(C)C` [20-deoxy-20-bromophorbol 12,13-bis[(2',4'-difluorophenyl)acetate]] the EC50 was less than 1 nM. Compound `O=C1CCCCCCCCCCCCCCCCCCC(=O)OC(CSCCO)CO1` (centres unmarked) [3-[(2'-hydroxyethylthio)methyl]-1,6-dioxo-2,5-dioxacyclotetracosane] has an EC50 of 10 nM. With `CCCCCCCCCCCCCC(=O)O[C@@H]1[C@@H](C)[C@@]2(O)[C@@H](C=C(C[S+]([O-])CCO)C[C@]3(O)C(=O)C(C)=C[C@@H]23)[C@@H]2C(C)(C)[C@]12OC(C)=O` (some centres unmarked) [20-deoxy-20-(2'-hydroxyethylsulfinyl)phorbol 12-myristate 13-acetate] the EC50 was 1100 nM. In the case of `CC(C)[C@H]1C(=O)N[C@H](CSCCO)Cc2c[nH]c3cccc(c23)N1C` [14-deoxy-14-(2'-hydroxyethylthio)indolactam V], the EC50 is reported as 1000 nM. Compound `CCC[S+]([O-])CC1=C[C@H]2[C@@H]3C(C)(C)[C@]3(OC(=O)Cc3ccc(F)cc3F)[C@H](OC(=O)Cc3ccc(F)cc3F)[C@@H](C)[C@]2(O)[C@@H]2C=C(C)C(=O)[C@@]2(O)C1` (some centres unmarked) [20-deoxy-20-(propylsulfinyl)phorbol 12,13-bis[(2',4'-difluorophenyl)acetate]] has an EC50 of 500 nM. In the case of `CC1=C[C@H]2[C@@]3(O)[C@H](C)[C@@H](OC(=O)Cc4ccc(F)cc4F)[C@]4(OC(=O)Cc5ccc(F)cc5F)[C@H]([C@@H]3C=C(CSCCS)C[C@]2(O)C1=O)C4(C)C` [20-deoxy-20-(2'-mercaptoethylthio)phorbol 12,13-bis[(2',4'-difluorophenyl)acetate]], the EC50 is reported as 50 nM. `CC1=C[C@H]2[C@@]3(O)[C@H](C)[C@@H](OC(=O)Cc4ccc(F)cc4F)[C@]4(OC(=O)Cc5ccc(F)cc5F)[C@H]([C@@H]3C=C(C[S+]([O-])CCO)C[C@]2(O)C1=O)C4(C)C` (some centres unmarked) [20-deoxy-20-(2'-hydroxyethylsulfinyl)phorbol 12,13-bis[(2',4'-difluorophenyl)acetate]] was tested, and the EC50 was 1600 nM. With `CC1=C[C@H]2[C@@]3(O)[C@H](C)[C@@H](OC(=O)Cc4ccc(F)cc4F)[C@]4(OC(=O)Cc5ccc(F)cc5F)[C@H]([C@@H]3C=C(C#N)C[C@]2(O)C1=O)C4(C)C` [6-deshydroxymethyl-6-cyanophorbol 12,13-bis[(2',4'-difluorophenyl)acetate]] the EC50 was less than 100 nM. Compound `CC1=C[C@H]2[C@@]3(O)[C@H](C)[C@@H](OC(=O)Cc4ccc(F)cc4F)[C@]4(OC(=O)Cc5ccc(F)cc5F)[C@H]([C@@H]3C=C(CSCCC(=O)O)C[C@]2(O)C1=O)C4(C)C` [20-deoxy-20-(2'-carboxyethylthio)phorbol 12,13-bis(2',4'-difluorophenylacetate)] has an EC50 of 4500 nM. `COC(=O)C1=C[C@H]2[C@@H]3C(C)(C)[C@]3(OC(=O)Cc3ccc(F)cc3F)[C@H](OC(=O)Cc3ccc(F)cc3F)[C@@H](C)[C@]2(O)[C@@H]2C=C(C)C(=O)[C@@]2(O)C1` [6-deshydroxymethyl-6-methoxycarbonylphorbol 12,13-bis[(2',4'-difluorophenyl)acetate]] gave an EC50 of 1600 nM. In the case of `CC1=C[C@H]2[C@@]3(O)[C@H](C)[C@@H](OC(=O)Cc4ccc(F)cc4F)[C@]4(OC(=O)Cc5ccc(F)cc5F)[C@H]([C@@H]3C=C(COC(=O)Oc3ccc(O)cc3)C[C@]2(O)C1=O)C4(C)C` [20-O-(4'-hydroxyphenoxy)carbonylphorbol 12,13-bis[(2',4'-difluorophenyl)acetate]], the EC50 is reported as less than 10 nM. `CCCCCCCCc1ccc2c3c(c[nH]c13)C[C@@H](CSCCO)NC(=O)[C@H](C(C)C)N2C` [14-deoxy-14-(2'-hydroxyethylthio)-7-octyl-(9S,12S)-indolactam V] showed an EC50 of 100 nM. With `CCCCCCCCCCCCCC(=O)O[C@@H]1[C@@H](C)[C@@]2(O)[C@@H](C=C(CS(=O)(=O)CCO)C[C@]3(O)C(=O)C(C)=C[C@@H]23)[C@@H]2C(C)(C)[C@]12OC(C)=O` [20-deoxy-20-(2'-hydroxyethylsulfonyl)phorbol 12-myristate 13-acetate] the EC50 was 500 nM.

Same assay, conditions: at 10 μM
“9-deshydroxymethyl-9-ethoxycarbonylindolactam V” was tested, and the “percent inhibition of viral RNA production” value was 47%. “9-deshydroxymethyl-9-[N-(2'-glucosyl)]carboxamidoindolactam V” was tested, and the “percent inhibition of viral RNA production” value was 35%.
